Where two headings read alike, the source gives them in different places.

Experiment [1] deals with T1, CCR5 receptor (Homo sapiens, UniProt P51681). Briefly: Aequorin-based calcium flux assay, agonist mode. It counts as cell-based. Set-up: expressed in transfected cells; host or cells: Chinese hamster ovary (CHO) cells coexpressing apoaequorin and Gα16. As to the method: (§1) Briefly, Chinese hamster ovary cells expressing the CCR5 receptor are transfected to coexpress apoaequorin and Gα16. Cells are incubated with 5 μM Coelenterazine H (Promega) overnight at room temperature, and resuspended at a concentration of 0.1×10^6 cells/ml. Cells are then mixed with test agonist or antagonist compounds and light emission by the aequorin is recorded with a luminometer (FDSS 6000-Hamamatsu) for 30 sec. Results are expressed as Relative Light Units (RLU). Controls include cells not expressing CCR5 in order to exclude possible non-specific effects of the test compound.
An agonist response is defined as an increase of light emission by aequorin corresponding to 10% or more of the light emitted by a reference sample of cells expressing CCR5 and treated with a the reference agonist ligand MIP-1β.
(In general: Calcium flux is commonly read through the fluorescence of an indicator in the cells.)

Experiment [2] addresses T1, CCR5 receptor. Briefly: Aequorin-based calcium flux assay, antagonist mode (against reference agonist MIP-1β). On all read-outs here: key: Inactive means >30000 nm. The experiment is classed as cell-based. Set-up: expressed in transfected cells; host or cells: Chinese hamster ovary (CHO) cells coexpressing apoaequorin and Gα16. Particulars: CHO cells expressing CCR5, vs reference agonist MIP-1β; for IC50: read-out: Aequorin/Ca++ Antagonist assay IC50. As for the experimental part:
as §1
An antagonist response is defined as a decrease of light emission by aequorin of 10% or more in a sample of cells expressing CCR5 stimulated by a reference agonist ligand MIP-1β and treated with the compound of the invention, relative to a sample of cells expressing CCR5 but only treated with the reference agonist ligand MIP-1β.

Experiment [3] deals with recombinant and non-replicative HIV virus. Briefly: Inhibitory effect on HIV infection to MAGI-CCR5 cells (luciferase reporter virus). The experiment is classed as cell-based. As to the method:
The inhibitory activity of the compounds of the invention on HIV infection is measured on the human MAGI R5 recombinant cell line coexpressing the human CCR5 receptor and CD4 at their extracellular membrane. MAGI R5 cells are plated in black view plates at 10,000 cells/well and incubated with the appropriate concentrations of the compounds of the invention during 1 hour. This is followed by a 24 hours infection period with the recombinant and non-replicative HIV virus coding for the firefly luciferase (Bona et al., 2006, Antimicrob. Agents Chemother. 50: 3407-3417). The inhibitory effect of the tested compound on virus entry in MAGI R5 cells is measured by a reduction of luciferase signal (TopCount-NXT reader (Packard) and detection luciferase kit: steadylite HTS assay kit (Perkin Elmer)) in the presence of the compound of the invention relative to the maximum signal obtained from cells infected with the virus without any added compound. The results of the tested compounds are reported as the concentration of compound required to inhibit 50% (IC50) of the maximum luciferase signal.
(In general: In a reporter assay the amount or activity of a reporter protein is the signal.)

Experiment [4] concerns the target T1, CCR5 receptor. The experiment in a line: 125I-MIP-1β binding competition assay. Set-up: expressed in transfected cells; host or cells: membranes of recombinant Chinese hamster ovary (CHO) cells. The following applies: membranes of CHO cells expressing human CCR5; 0.05 nM 125I-MIP-1β. As to the method: The ability of the compounds of the invention to inhibit the binding of MIP-1β was assessed by an in vitro radioligand binding assay. Membranes were prepared from Chinese hamster ovary recombinant cells which express the human CCR5 receptor. The membranes were incubated with 0.05 nM ^125I-MIP-1β in a HEPES 25 mM/CaCl2 5 mM/MgCl2 1 mM buffer and various concentrations of the compounds of the invention. The amount of iodinated MIP-1β bound to the receptor was determined after filtration by the quantification of membrane associated radioactivity using the TopCount-NXT reader (Packard). Competition curves were obtained for compounds of the invention and the concentration of compound which displaced 50% of bound radioligand (IC50) was calculated

[5] abbreviates: CHO cells expressing CCR5, agonistic mode of action.
[6] abbreviates: Human immunodeficiency virus 1, MAGI-CCR5, 24 h, read-out: HIV-Infection assay IC50.
The mark [7] stands for this setting: CHO cells expressing CCR5, apoaequorin and Gα16, read-out: Aequorin/Ca++ assay EC50.
[8] abbreviates: Human immunodeficiency virus 1, MAGI, read-out: IC50 (HIV infection of MAGI R5 cells), range over the listed compounds.
The mark [9] stands for this setting: CHO cells expressing CCR5, agonistic mode of action, read-out: Aequorin/Ca++ Agonist assay EC50.

T1 sequence (P51681 whole entry): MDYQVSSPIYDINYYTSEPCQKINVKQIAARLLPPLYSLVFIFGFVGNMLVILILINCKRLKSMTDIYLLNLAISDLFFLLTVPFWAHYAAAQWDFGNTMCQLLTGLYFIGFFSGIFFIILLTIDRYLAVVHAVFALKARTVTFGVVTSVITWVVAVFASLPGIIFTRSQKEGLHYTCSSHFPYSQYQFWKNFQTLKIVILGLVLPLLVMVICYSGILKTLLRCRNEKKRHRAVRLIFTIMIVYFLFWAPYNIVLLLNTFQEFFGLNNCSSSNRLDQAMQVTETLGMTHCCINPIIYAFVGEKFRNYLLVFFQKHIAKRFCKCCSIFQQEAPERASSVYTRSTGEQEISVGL

In the case of `CN(C(=O)C(c1ccccc1)N1Cc2ccccc2C1=O)C1CCN(CCC(c2ccccc2)c2ccccc2)CC1` (centres unmarked) [Compound 62], the “Aequorin/Ca++ Agonist assay EC50” value at CCR5 receptor [1] (setting [5]) was “Inactive”. The IC50 on CCR5 receptor [2] was found to be 1230 nM.
In the case of `C[C@H](CN(c1cccc(F)c1)S(=O)(=O)Cc1ccccc1)N1CCC(NC(=O)Cc2ccc(C(F)(F)F)cc2)CC1` [Compound 90], the IC50 amounted to 5.3 nM in experiment [3] (setting [6]) and 0.7 nM at CCR5 receptor [4]. For the same compound, the EC50 on CCR5 receptor [1] (setting [7]) stood at 180 nM.
`CS(=O)(=O)c1ccc(CC(=O)NC2CCN(CCC(c3ccccc3)c3ccccc3)CC2)cc1` [Compound 2]: the IC50 in experiment [3] (setting [8]) is 25.6 to 2500 nM; in experiment [3] (setting [6]), 345 nM; on CCR5 receptor [4], 6.61 nM. Further, the EC50 at CCR5 receptor [1] (setting [7]) was 33.2 nM.
With `C[C@H](CN(c1ccccc1)S(=O)(=O)Cc1ccccc1)N1CCC(NC(=O)Cc2ccc(C#N)cc2)CC1` [Compound 93], the IC50 in experiment [3] (setting [6]) was 1.9 nM; at CCR5 receptor [4], 0.5 nM. Besides, the EC50 at CCR5 receptor [1] (setting [7]) worked out at 50.8 nM.
In the case of `COc1ccc(CC(=O)NC2CCN(CCC(c3ccccc3)c3ccccc3)CC2)cc1` [Compound 3], the values for the IC50 (in experiment [3] (setting [8]); in experiment [3] (setting [6]); on CCR5 receptor [4]) were 25.6 to 2500 nM, 871 nM and 14.8 nM, respectively. At CCR5 receptor [1] (setting [7]), the EC50 was 27.9 nM.
Take `C[C@H](CN(c1ccccc1)S(=O)(=O)Cc1ccccc1)N1CCC(NC(=O)Cc2ccc(F)cc2F)CC1` [Compound 113]: the IC50 in experiment [3] (setting [6]) stood at 4.6 nM. The EC50 at CCR5 receptor [1] (setting [7]) was 29.4 nM.
With `C[C@H](CN(c1cccc(F)c1)S(=O)(=O)Cc1ccccc1)N1CCC(NC(=O)Cc2ccc(F)cc2F)CC1` [Compound 81], the IC50 is 14.6 nM in experiment [3] (setting [6]) and 0.2 nM at CCR5 receptor [4]. Moreover, the EC50 at CCR5 receptor [1] (setting [7]) was 38.1 nM.
Regarding `CC(CC(c1ccccc1)c1ccccc1)N1CCC(NC(=O)Cc2ccc(C#N)cc2)CC1` (centres unmarked) [Compound 65], the IC50 was 25.6 to 2500 nM in experiment [3] (setting [8]), 71.7 nM in experiment [3] (setting [6]) and 0.64 nM on CCR5 receptor [4]. Further, on CCR5 receptor [1] (setting [7]), the EC50 amounted to 117 nM.
Consider `O=C(NC1CCN(CCC(c2ccccc2)c2ccccc2)CC1)C(c1ccccc1)N1Cc2ccccc2C1=O` (centres unmarked) [Compound 37], for which the EC50 at CCR5 receptor [1] (setting [9]) was 4250 nM. Besides, the “Aequorin/Ca++ Antagonist assay IC50” value at CCR5 receptor [2] was “Inactive”.
`C[C@H](CN(c1cccc(F)c1)S(=O)(=O)Cc1ccccc1)N1CCC(NC(=O)Cc2ccccc2F)CC1` [Compound 80]: the IC50 in experiment [3] (setting [6]) was determined as 27 nM; at CCR5 receptor [4] it was 0.8 nM. Further, the EC50 on CCR5 receptor [1] (setting [7]) was found to be 31.3 nM.
The like results for `C[C@H](CN(c1cccc(F)c1)S(=O)(=O)Cc1ccccc1)N1CCC(NC(=O)Cc2ccc(F)cc2)CC1` [Compound 97] were, in that order, 3 nM, 0.2 nM and 94.4 nM.
For `O=C(Cc1c[nH]c2ccccc12)NC1CCN(CCC(c2ccccc2)c2ccccc2)CC1` [Compound 25], the IC50 in experiment [3] (setting [8]) is 25.6 to 2500 nM; in experiment [3] (setting [6]), 1130 nM; on CCR5 receptor [4], 67.5 nM. On CCR5 receptor [1] (setting [7]), the EC50 amounted to 90.8 nM.
As for `O=C(Cc1ccc(Cl)cc1)NC1CCN(CCC(c2ccccc2)c2ccccc2)CC1` [Compound 1], the figures for the IC50 (in experiment [3] (setting [8]); in experiment [3] (setting [6]); on CCR5 receptor [4]) were 25.6 to 2500 nM, 333 nM and 9.32 nM, respectively. The EC50 at CCR5 receptor [1] (setting [7]) was determined as 58.8 nM. Besides, the “Aequorin/Ca++ Antagonist assay IC50” value on CCR5 receptor [2] is listed as “Inactive”.
Consider `O=C(CC1CCCCC1)NC1CCN(CCC(c2ccccc2)c2ccccc2)CC1` [Compound 28], for which the IC50 came to 2540 nM in experiment [3] (setting [6]) and 158 nM at CCR5 receptor [4]. The EC50 on CCR5 receptor [1] (setting [7]) amounted to 620 nM.
For `N#Cc1ccc(CC(=O)NC2CCN(CCC(c3ccccc3)c3ccccc3)CC2)cc1` [Compound 24], the figures for the IC50 (in experiment [3] (setting [8]); in experiment [3] (setting [6]); on CCR5 receptor [4]) were 25.6 to 2500 nM, 384 nM and 3.25 nM, respectively. Besides, the EC50 at CCR5 receptor [1] (setting [7]) stood at 104 nM.
The like results for `CC(CC(c1ccccc1)c1ccccc1)N1CCC(NC(=O)Cc2ccc(S(C)(=O)=O)cc2)CC1` (centres unmarked) [Compound 64] were, in that order, 25.6 to 2500 nM, 25.6 nM, 0.14 nM and 83.4 nM.
The like results for `O=C(Cc1ccccc1)NC1CCN(CCC(c2ccccc2)c2ccccc2)CC1` [Compound 7] were, in that order, 25.6 to 2500 nM, 1420 nM, 26.7 nM and 43.2 nM.
Take `O=C(CN1Cc2ccccc2C1=O)NC1CCN(CCC(c2ccccc2)c2ccccc2)CC1` [Compound 31]: the EC50 at CCR5 receptor [1] (setting [9]) was 470 nM. For the same compound, the “Aequorin/Ca++ Antagonist assay IC50” value on CCR5 receptor [2] was “Inactive”.
Take `O=C(Cc1ccc(OC(F)(F)F)cc1)NC1CCN(CCC(c2ccccc2)c2ccccc2)CC1` [Compound 5]: the IC50 was 25.6 to 2500 nM in experiment [3] (setting [8]), 425 nM in experiment [3] (setting [6]) and 23.4 nM on CCR5 receptor [4]. In addition, the EC50 at CCR5 receptor [1] (setting [7]) stood at 145 nM.
On to `CN(C(=O)CN1Cc2ccccc2C1=O)C1CCN(CCC(c2ccccc2)c2ccccc2)CC1` [Compound 63], for which the “Aequorin/Ca++ Agonist assay EC50” value on CCR5 receptor [1] (setting [5]) is “Inactive”. For the same compound, on CCR5 receptor [2], the IC50 turned out to be 1430 nM.

Source of the values: patent US20090054451A1, “Use of Piperidine Derivatives as Agonists of Chemokine Receptor Activity” (Euroscreen S.A., priority 2007, published 2009).
